What was measured:
[1] = tested on: Glomerella lacenarium (Colletotrichum lacenarium); experiment: Fungicidal activity, liquid culture, cucumber preventative (anthracnose); assay type: cell-based; details: 20 ppm in the applied formulation, liquid culture in PDB, inhibition of growth measured photometrically 3 to 4 days after application, compared to untreated control, read-out: disease control
Procedure, shortened: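 Test compound in DMSO is placed in a microtiter plate, then potato dextrose broth containing conidia from cryogenic storage is added. Incubation runs at 24° C., and growth inhibition is read photometrically after 3 to 4 days.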

[2] = tested on: Puccinia recondita f. Sp. Tritici; experiment: Fungicidal activity, wheat leaf disc curative (brown rust); assay type: in vivo; details: foliar, 200 ppm in the applied formulation, wheat leaf segments cv. Kanzler, curative (applied 1 day after inoculation), compared to untreated control, 6 to 8 days after application, read-out: disease control
Procedure, shortened: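 Segments of wheat (cultivar Kanzler) sit on agar and are spore-inoculated first; after one day in darkness at 19° C and 75% RH the diluted formulated compound is sprayed on. A 12 h photoperiod follows at the same temperature and humidity before disease is scored against untreated controls.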

[3] = tested on: Phakopsora pachyrhizi; experiment: Fungicidal activity, soybean leaf disc preventative (Asian soybean rust); assay type: in vivo; details: foliar, 200 ppm in the applied formulation, soybean leaf disks, compared to untreated control, 12 to 14 days after application, read-out: disease control
Procedure, shortened: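 Read-out is percent disease control relative to untreated check discs, assessed once untreated discs show adequate disease, 12 to 14 days after application. Compounds, tested at 200 ppm in the applied formulation, are sprayed onto soybean leaf discs one day before inoculation with a spore suspension.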

[4] = tested on: Puccinia recondita f. Sp. Tritici; experiment: Fungicidal activity, wheat leaf disc preventative (brown rust); assay type: in vivo; details: foliar, 200 ppm in the applied formulation, wheat leaf segments cv. Kanzler, compared to untreated control, 7 to 9 days after application, read-out: disease control
Procedure, shortened: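 Preventative leaf-segment test: spray application of diluted formulated compound on wheat cv. Kanzler, spore inoculation after 1 day. Percent control relative to untreated segments rated 7 to 9 days post-application, with incubation at 19° C, 75% relative humidity, 12 h photoperiod.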

COCC(=O)NCc1ccc(-c2noc(C(F)(F)F)n2)s1 [Compound 2.3, 2-methoxy-N-[[5-[5-(trifluoromethyl)-1,2,4-oxadiazol-3-yl]-2-thienyl]methyl]acetamide]
≥ 80%: inhibition of growth at 20 ppm [1] | pest or weed control at 200 ppm [2] | pest or weed control at 200 ppm [3] | pest or weed control at 200 ppm [4]

O=C(NCc1ccc(-c2noc(C(F)(F)F)n2)s1)C1CCCO1 (stereo not drawn) [Compound 3.8, N-[[5-[5-(trifluoromethyl)-1,2,4-oxadiazol-3-yl]-2-thienyl]methyl]tetrahydrofuran-2-carboxamide]
≥ 80%: inhibition of growth at 20 ppm [1] | pest or weed control at 200 ppm [2] | pest or weed control at 200 ppm [3] | pest or weed control at 200 ppm [4]

CCNC(=O)N(Cc1ccc(-c2noc(C(F)(F)F)n2)s1)OC [Compound 1.51, 3-ethyl-1-methoxy-1-[[5-[5-(trifluoromethyl)-1,2,4-oxadiazol-3-yl]-2-thienyl]methyl]urea]
≥ 80%: inhibition of growth at 20 ppm [1] | pest or weed control at 200 ppm [2] | pest or weed control at 200 ppm [3] | pest or weed control at 200 ppm [4]

NC(=O)C(=O)N(Cc1ccc(-c2noc(C(F)(F)F)n2)s1)C1CC1 [Compound 6.10, N′-cyclopropyl-N′-[[5-[5-(trifluoromethyl)-1,2,4-oxadiazol-3-yl]-2-thienyl]methyl]oxamide]
≥ 80%: inhibition of growth at 20 ppm [1] | pest or weed control at 200 ppm [2] | pest or weed control at 200 ppm [3] | pest or weed control at 200 ppm [4]

CC1CC1C(=O)N(C)Cc1ccc(-c2noc(C(F)(F)F)n2)s1 (stereo not drawn) [Compound 5.25, N,2-dimethyl-N-[[5-[5-(trifluoromethyl)-1,2,4-oxadiazol-3-yl]-2-thienyl]methyl]cyclopropanecarboxamide]
≥ 80%: inhibition of growth at 20 ppm [1] | pest or weed control at 200 ppm [2] | pest or weed control at 200 ppm [3] | pest or weed control at 200 ppm [4]

CON(Cc1ccc(-c2noc(C(F)(F)F)n2)s1)C(=O)C1(C)CC1 [Compound 1.15, N-methoxy-1-methyl-N-[[5-[5-(trifluoromethyl)-1,2,4-oxadiazol-3-yl]-2-thienyl]methyl]cyclopropanecarboxamide]
≥ 80%: inhibition of growth at 20 ppm [1] | pest or weed control at 200 ppm [2] | pest or weed control at 200 ppm [3] | pest or weed control at 200 ppm [4]

COC(C)C(=O)N(C)Cc1ccc(-c2noc(C(F)(F)F)n2)s1 (stereo not drawn) [Compound 4.15, 2-methoxy-N-methyl-N-[[5-[5-(trifluoromethyl)-1,2,4-oxadiazol-3-yl]-2-thienyl]methyl]propanamide]
≥ 80%: inhibition of growth at 20 ppm [1] | pest or weed control at 200 ppm [2] | pest or weed control at 200 ppm [3] | pest or weed control at 200 ppm [4]

CC1(C(=O)NCc2ccc(-c3noc(C(F)(F)F)n3)s2)COC1 [Compound 3.7, 3-methyl-N-[[5-[5-(trifluoromethyl)-1,2,4-oxadiazol-3-yl]-2-thienyl]methyl]oxetane-3-carboxamide]
≥ 80%: inhibition of growth at 20 ppm [1] | pest or weed control at 200 ppm [2] | pest or weed control at 200 ppm [3] | pest or weed control at 200 ppm [4]

CON(Cc1ccc(-c2noc(C(F)(F)F)n2)s1)C(=O)C(N)=O [Compound 1.24, N′-methoxy-N′-[[5-[5-(trifluoromethyl)-1,2,4-oxadiazol-3-yl]-2-thienyl]methyl]oxamide]
≥ 80%: inhibition of growth at 20 ppm [1] | pest or weed control at 200 ppm [2] | pest or weed control at 200 ppm [3] | pest or weed control at 200 ppm [4]

C=CCN(C)C(=O)N(CC)Cc1ccc(-c2noc(C(F)(F)F)n2)s1 [Compound 4.71, 1-allyl-3-ethyl-1-methyl-3-[[5-[5-(trifluoromethyl)-1,2,4-oxadiazol-3-yl]-2-thienyl]methyl]urea]
≥ 80%: inhibition of growth at 20 ppm [1] | pest or weed control at 200 ppm [2] | pest or weed control at 200 ppm [3] | pest or weed control at 200 ppm [4]

COCCC(=O)N(Cc1ccc(-c2noc(C(F)(F)F)n2)s1)OCC(F)F [Compound 4.64, N-(2,2-difluoroethoxy)-3-methoxy-N-[[5-[5-(trifluoromethyl)-1,2,4-oxadiazol-3-yl]-2-thienyl]methyl]propanamide]
≥ 80%: inhibition of growth at 20 ppm [1] | pest or weed control at 200 ppm [2] | pest or weed control at 200 ppm [3] | pest or weed control at 200 ppm [4]

CCCC(=O)N(Cc1ccc(-c2noc(C(F)(F)F)n2)s1)C1CC1 [Compound 4.54, N-cyclopropyl-N-[[5-[5-(trifluoromethyl)-1,2,4-oxadiazol-3-yl]-2-thienyl]methyl]butanamide]
≥ 80%: inhibition of growth at 20 ppm [1] | pest or weed control at 200 ppm [2] | pest or weed control at 200 ppm [3] | pest or weed control at 200 ppm [4]

CCN(Cc1ccc(-c2noc(C(F)(F)F)n2)s1)C(=O)C1CC1 [Compound 5.4, N-ethyl-N-[[5-[5-(trifluoromethyl)-1,2,4-oxadiazol-3-yl]-2-thienyl]methyl]cyclopropanecarboxamide]
≥ 80%: inhibition of growth at 20 ppm [1] | pest or weed control at 200 ppm [2] | pest or weed control at 200 ppm [3] | pest or weed control at 200 ppm [4]

COCCNC(=O)N(Cc1ccc(-c2noc(C(F)(F)F)n2)s1)OC [Compound 1.53, 1-methoxy-3-(2-methoxyethyl)-1-[[5-[5-(trifluoromethyl)-1,2,4-oxadiazol-3-yl]-2-thienyl]methyl]urea]
≥ 80%: inhibition of growth at 20 ppm [1] | pest or weed control at 200 ppm [2] | pest or weed control at 200 ppm [3] | pest or weed control at 200 ppm [4]

COCCCC(=O)N(C)Cc1ccc(-c2noc(C(F)(F)F)n2)s1 [Compound 4.38, 4-methoxy-N-methyl-N-[[5-[5-(trifluoromethyl)-1,2,4-oxadiazol-3-yl]-2-thienyl]methyl]butanamide]
≥ 80%: inhibition of growth at 20 ppm [1] | pest or weed control at 200 ppm [2] | pest or weed control at 200 ppm [3] | pest or weed control at 200 ppm [4]

CCC(=O)N(Cc1ccc(-c2noc(C(F)(F)F)n2)s1)OC [Compound 1.12, N-methoxy-N-[[5-[5-(trifluoromethyl)-1,2,4-oxadiazol-3-yl]-2-thienyl]methyl]propanamide]
≥ 80%: inhibition of growth at 20 ppm [1] | pest or weed control at 200 ppm [2] | pest or weed control at 200 ppm [3] | pest or weed control at 200 ppm [4]

C=CCN(C)C(=O)N(Cc1ccc(-c2noc(C(F)(F)F)n2)s1)C1CC1 [Compound 4.88, 1-allyl-3-cyclopropyl-1-methyl-3-[[5-[5-(trifluoromethyl)-1,2,4-oxadiazol-3-yl]-2-thienyl]methyl]urea]
≥ 80%: inhibition of growth at 20 ppm [1] | pest or weed control at 200 ppm [2] | pest or weed control at 200 ppm [3] | pest or weed control at 200 ppm [4]

CNC(=O)N(C)Cc1ccc(-c2noc(C(F)(F)F)n2)s1 [Compound 4.1, 1,3-dimethyl-1-[[5-[5-(trifluoromethyl)-1,2,4-oxadiazol-3-yl]-2-thienyl]methyl]urea]
≥ 80%: inhibition of growth at 20 ppm [1] | pest or weed control at 200 ppm [2] | pest or weed control at 200 ppm [3] | pest or weed control at 200 ppm [4]

C#CCNC(=O)N(Cc1ccc(-c2noc(C(F)(F)F)n2)s1)C1CC1 [Compound 4.92, 1-cyclopropyl-3-prop-2-ynyl-1-[[5-[5-(trifluoromethyl)-1,2,4-oxadiazol-3-yl]-2-thienyl]methyl]urea]
≥ 80%: inhibition of growth at 20 ppm [1] | pest or weed control at 200 ppm [2] | pest or weed control at 200 ppm [3] | pest or weed control at 200 ppm [4]

O=C(NC1CC1)N(Cc1ccc(-c2noc(C(F)(F)F)n2)s1)OCC(F)F [Compound 5.65, 3-cyclopropyl-1-(2,2-difluoroethoxy)-1-[[5-[5-(trifluoromethyl)-1,2,4-oxadiazol-3-yl]-2-thienyl]methyl]urea]
≥ 80%: inhibition of growth at 20 ppm [1] | pest or weed control at 200 ppm [2] | pest or weed control at 200 ppm [3] | pest or weed control at 200 ppm [4]

CCC(=O)N(CC)Cc1ccc(-c2noc(C(F)(F)F)n2)s1 [Compound 4.26, N-ethyl-N-[[5-[5-(trifluoromethyl)-1,2,4-oxadiazol-3-yl]-2-thienyl]methyl]propanamide]
≥ 80%: inhibition of growth at 20 ppm [1] | pest or weed control at 200 ppm [2] | pest or weed control at 200 ppm [3] | pest or weed control at 200 ppm [4]

Source: patent US20200187502A1, “MICROBIOCIDAL OXADIAZOLE DERIVATIVES” (SYNGENTA PARTICIPATIONS AG, priority 2017, published 2020)
